Row | melting point [°C] | SMILES
1 | 69 to 70 | CCNC1C=CC=C(Oc2ccc(F)cc2)C1(Cl)[N+](=O)[O-] (centres undefined)
2 | 106 | Fc1cc(F)c(-c2c(Cl)nc3nc(SCc4ccccc4)nn3c2Cl)c(F)c1
3 | 227 to 228 | CCOC(=O)CCC1(NC(=O)c2ccc(Cl)c(Cl)c2)C(=O)Nc2ccccc21 (centres undefined)
4 | 101 to 102 | COC1(c2cccc(Sc3cc(C)c4c(ccc(=O)n4C)c3)c2)CCOCC1
5 | 147 to 149 | NC(=O)OCC(Cc1ccccc1)NC(=O)C1CCN(c2c(Cl)cncc2Cl)CC1 (centres undefined)
6 | 76 | CC(=O)OC1COC(N=[N+]=[N-])C(OC(C)=O)C1OC(C)=O (centres undefined)
7 | 133 to 134 | CN(C)C(=O)Nc1ccc(SCCc2ccccc2)c(Cl)c1
8 | 112 to 115 | O=S(=O)(NCCCCCCCCCCOc1ccc(-n2ccnc2)cc1)c1ccc2ccccc2c1
9 | 199 | COC(=S)NC[C@H]1CN(c2cc(F)c(N3CNC(=O)C3)c(F)c2)C(=O)O1
10 | 102 to 103 | CCOC(=O)c1c(CN(CC)CC)nc2cc(OC)c(OC)cc2c1-c1ccc(F)cc1
11 | 48 | CCCCCCCCCCCCCCCCCCOC[C@@H](O)COC(=O)CCCCl
12 | 125 to 135 | C[C@@H](S)[C@](O)(Cn1ccnc1)c1ccc(F)cc1F
13 | 147 to 149 | O=C1N(CC2COCCO2)c2ccccc2C12COc1cc3c(cc12)OCO3 (centres undefined)
14 | 204 to 206 | Nc1c(-c2ccc(Cl)cc2Cl)nnn1Cc1ccc(S(N)(=O)=O)cc1
15 | 203 to 204 | Nc1nc(/C(=N/OC23CC4CC(CC(C4)C2)C3)C(=O)O)cs1
16 | 258 to 260 | O=C(O)c1ccc(O)c(C(=O)C=Cc2ccc(OCc3ccc4ccccc4n3)cc2)c1
17 | 155 to 157 | COc1ccccc1-n1cnc2c(C(N)=O)nc(Nc3cccc(O)c3)nc21
18 | 133 to 134 | CCN1c2ncc(C=O)cc2C(=O)N(C)c2ccc(F)nc21
19 | 214 to 216 | Nc1c2c(nc3ccccc13)CCSC2
20 | 240 | COc1cc2c(cc1OC)C(=O)C(=NO)C2
21 | 174 to 176 | COc1ccc(-c2nc(Sc3ccc(F)cc3F)[nH]c2-c2ccc(OC)cc2)cc1
22 | 83 to 87 | CCNc1cc([N+](=O)[O-])ccc1OCCOC
23 | 41 to 42 | CCC(=O)c1c(C(C)C)nn2ccccc12
24 | 162 to 164 | COCOc1nn(-c2ccccc2)cc1/C=C/c1nc(N2CCOCC2)sc1C

Row | melting point [°C] | SMILES
25 | 177 to 180 | Cc1ccc(S(=O)(=O)N(CCN(CC(=O)O)S(=O)(=O)c2ccc(C)cc2)CCN(CC(=O)O)S(=O)(=O)c2ccc(C)cc2)cc1
26 | 200 to 202 | CCn1ccc(=O)c2cnc(-c3ccncc3)nc21
27 | 39 to 41 | COC(=O)COc1ccc(C=O)cc1
28 | 92 to 93 | CCCCc1c(C(=O)OCC)sc2ccc([N+](=O)[O-])cc12
29 | 210 | C#Cc1cccc(Nc2nc(Nc3cccc(C#C)c3)nc(-c3ccccc3)n2)c1
30 | 152 to 154 | CNC(=O)CCSCc1csc(NC(N)=NCC(F)(F)F)n1
31 | 243 to 246 | N#CC(C(=O)Nc1ccccc1)C(=O)c1nn(-c2ccccc2)c2c1COc1ccc(Cl)cc1-2 (centres undefined)
32 | 124 to 126 | Cc1cc(N)c(C)c2c1OC(C)(C)C2=O
33 | 212 | FC(F)(F)CNc1ccc2c(c1)N1CCN=C1S2
34 | 210 to 213 | CC(C)(C)OC(=O)NC1CCc2cc(C(=O)O)ccc2C1 (centres undefined)
35 | 142 to 145 | Nc1nc(Cc2ccccc2)no1
36 | 137 to 139 | CC[C@H]1COC(=O)N1c1nc(-c2ccc(Br)cc2)c(Cl)s1
37 | 68 to 69 | CCCCCCn1c(=O)c2c(ncn2CCCCC(C)O)n(C)c1=O (centres undefined)
38 | 190 to 192 | COc1cc2c(cc1-c1cccnc1)-c1c(Cl)c3c(n1CC2)C(=O)N(C(C)(C)C)CCCC3
39 | 204 to 205 | CC(=O)N1c2ccccc2CC1C(N)=NO (centres undefined)
40 | 120 to 122 | COc1cc(Oc2cccc(C(F)(F)F)c2)nc(C(=O)NO)c1
41 | 33 to 36 | CN(C)C(=O)c1ccccc1I
42 | 185 | CCCCN=C(N)Nc1nc(C)cc(C)n1
43 | 180 to 182 | Cn1cc(-c2cc3cccnc3[nH]2)c2cc(C(=O)NC(C)(CO)CO)ccc21
44 | 209 to 210 | O=C(Nc1ccc2nc(CN3CCN=C3c3ccccc3)ccc2c1)c1ccc(-c2ccc(F)cc2)cc1
45 | 113 to 114 | COc1ccc2c(CO)c(F)ccc2c1C(F)(F)F
46 | 138 to 140 | Nc1nc(NCC(O)(c2ccccc2)c2ccccc2)c2ncn(C3OC(CO)C(O)C3O)c2n1 (centres undefined)
47 | 275 | CC(=O)Nc1ccc(NC(=O)C=C2CC(C(=O)OCc3ccccc3)Nc3cc(Cl)cc(Cl)c32)cc1 (racemic)
48 | 58 to 62 | CS(=O)(=O)c1ccc(-c2cnn(CC(F)(F)F)c(=O)c2Cc2cccc(F)c2)cc1

Row | melting point [°C] | SMILES
49 | 258 to 260 | Clc1cc(Cl)c2oc(-c3ccc(C=Cc4ccc(-c5ccccc5)cc4)cc3)cc2c1
50 | 87 to 88 | Cc1ccc(S(=O)(=O)OCC2CCc3scnc3C2)cc1 (centres undefined)
51 | 265 | CCc1ccc2c(c1)C=Cc1sc(C)nc1C2c1cn(C)c(=O)[nH]c1=S (centres undefined)
52 | 90 to 92 | CCCCc1oc2ccc(C(N)=O)cc2c1C(=O)c1ccc(OCCCN(CCCC)CCCC)cc1
53 | 249 to 252 | COc1ccc(-c2ccc(C(=O)O)cc2)c2c1OC(C)(C)C2
54 | 169 to 171 | O=C1Cc2cc(-c3cccc(Cl)c3)ccc2N1
55 | 70 to 72 | CCOC(=O)C1CCn2c(cc3ccccc32)C1 (centres undefined)
56 | 82 to 84 | CCSC(=S)N1C(CO)Cc2c([nH]c3ccccc23)C1CC (centres undefined)
57 | 248 to 250 | CSc1nc2cc3c(cc2[nH]1)NC(=O)C3(C)C
58 | > 150 | O=c1[nH]c(=O)n(C2C=CC(CBr)O2)cc1C=CBr (centres undefined)
59 | 138 to 140 | CC(=O)Nc1cc(OCCC(=O)O)ccc1Oc1ccccc1
60 | 169 to 170 | O=C(O)c1ccc(NCc2sc(Cl)cc2Cl)cc1
61 | 179 to 180 | CN(C(=O)CNc1cc(-c2ccccc2)nc(-c2ccc(C(F)(F)F)cc2)n1)C1CC1
62 | 98 to 99 | COc1ccc(CNC(=O)c2ccccc2)cc1
63 | 246 to 249 | Cn1nnc(-c2ccc(C=Cc3ccc(-c4nc5ccccc5o4)cc3)cc2)c1-c1nc2ccccc2o1
64 | 142 to 143 | COc1cccc(NC(=O)c2ccccc2C)c1
65 | 169 to 170 | COc1cccc(CC(NC(C)=O)C(=O)O)c1OCc1ccccc1 (racemic)
66 | 198 to 200 | COC(=O)C1(C)CCN(c2cccc(-c3cnc4[nH]cc(C(=O)C(C)(C)C)c4n3)c2)C1 (centres undefined)
67 | 249 to 251 | CCOC(=O)c1cn2c3c(c(C#N)ccc3c1=O)CCC2C (centres undefined)
68 | 61 to 64 | CCN(CCO)c1ccc(C(=O)OC)cc1
69 | 186 to 188 | CCCCc1nc2ccc(NC(=O)C3CCCCC3C(=O)O)cc2n1Cc1ccc(-c2ccccc2C(=O)O)cc1 (centres undefined)
70 | 86 to 88 | CN(Cc1ccccc1)c1ccccc1C(=O)O
71 | 163 to 164 | O=C(c1ccc(-n2ccc(C3CC3)n2)cc1C(F)(F)F)N1Cc2cccn2Cc2ccccc21
72 | 158 | Oc1ccc2cc(Oc3c(Cl)cc(C(F)(F)F)cc3Cl)ccc2c1

Row | melting point [°C] | SMILES
73 | 170 | COc1ccc(NC(=NC#N)N2CCn3c(c(C(N)=O)c(Cl)c3-c3ccccc3)C2)cc1
74 | 174 to 176 | COc1cc(SCc2ccccc2)c([N+](=O)[O-])cc1OC
75 | 195 to 197 | CS(=O)(=O)N1CCS(=O)c2ccccc2C1 (centres undefined)
76 | 228 | COc1ccc(-c2nc(C(F)(F)F)c(Br)[nH]2)cc1Cl
77 | 97 to 97.5 | CCCCN1C2=NCCN2C(c2ccccc2)c2cc(Cl)ccc21 (centres undefined)
78 | 153 | OC1CSC(Oc2cccnc2Cl)C(O)C1O (centres undefined)
79 | 253 to 255 | N=C(NOC(=O)c1ccccc1)c1ccc(NC(=O)CCCC(=O)Nc2ccc(C(=N)NOC(=O)c3ccccc3)cc2)cc1
80 | 273 | COc1cc(C=C(C#N)C(=O)Nc2ccccc2)cc(Cl)c1O
81 | 167 to 168 | CCCc1c(O)c(C(C)=O)cc(I)c1OCc1ccc(C(=O)O)cc1
82 | 210 | O=C1NCCCN1C1(CO)CCN(Cc2ccccc2)CC1
83 | 157 to 159 | COc1cc(OC)nc(Oc2cccc3c2C(=O)OC3C#N)n1 (centres undefined)
84 | 220 to 222 | Cc1nc2cccc(OC3CCCCC3)c2c(N)c1C(=O)O
85 | > 320 | CN(C)CCC(=O)Nc1ccc2c(=O)c3ccc(NC(=O)CCN(C)C)cc3[nH]c2c1
86 | 267 to 268 | Cc1c(Br)c(=O)n(C2CCCC2)c2nc(Nc3ccccn3)ncc12
87 | 69.1 | CCCCCCOc1ccc2nc(-c3ccc(COC(CCCCCC)C(F)(F)F)cc3)sc2c1 (centres undefined)
88 | 109 | CCCCOc1cc(/C=C(\OCC)C(=O)O)ccc1OCCc1ccc(OCC)c(Cl)c1
89 | 175 to 180 | CC(C)(Oc1ccc(OC(CCC(F)(F)F)c2cccc3c2cnn3-c2ccc(C(F)(F)F)cc2)cc1)C(=O)O (racemic)
90 | 127 to 129 | CCOC(=O)COc1cc(F)c(-c2ncnc(C(F)(F)F)c2Cl)cc1[N+](=O)[O-]
91 | 185 to 187 | OCc1cc2ccnc(Cl)c2[nH]1
92 | 117 to 119 | CCOC(=O)C1=C(C)NC(c2sc(C)nc2C)=NC1c1ccc(F)cc1Cl (centres undefined)
93 | 102 to 108 | Cc1cc(C(=O)O)ccc1OCCNC(=O)C1Cc2ccccc2N1S(=O)(=O)c1ccc(-c2cccc(C(F)(F)F)c2)cc1 (centres undefined)
94 | 125 to 128 | O=S(Cc1cn(C23CC4CC(CC(C4)C2)C3)nn1)c1cc(Cl)ccc1Cl (centres undefined)
95 | 184 to 187 | CCC=CCn1c(=O)sc2c(=O)n(C)c(N)nc21

Row | SMILES | melting point [°C]
96 | CCC1C(C)=NN=C(c2ccc(OC)c(OC)c2)c2cc(Cl)ccc21 (centres undefined) | 185 to 187
97 | COC(=O)[C@H](CO)NC(=O)c1ncn2c1CN(C)C(=O)c1ccccc1-2 | 180 to 181
98 | CC(=O)c1ccc(CCN2CCN(c3ccc(Cl)cc3)CC2)cc1 | 141 to 143
99 | CCCCC1(N(C)C)CC=C(c2[nH]c3ccccc3c2Cc2ccccc2)CC1 (centres undefined) | 107 to 115
